The target in data set [1] is T1, α4β2 nicotinic acetylcholine receptor (Rattus norvegicus, UniProt P09483+P12390).
T1 construct: from tissue; host or cells: rat cerebral cortex membranes
Description: [3H]-N-methylcarbamyl choline (3H-MCC) displacement, rat cerebral cortex membranes. Type of data set: binding. On the procedure:
Binding at the α4β2 nicotinic acetyicholine receptor can be measured as described in Abood, et al., Biochem. Pharmacol., 1986, 35:4199, or in Boksa, et al, Eur. J Pharmacol., 1987, 139:323. In essence, washed rat cerebral cortex membranes suspended in ice-cold saline (pH 7.4) were incubated with [^3H]-N-methylcarbamyl choline (^3H—MCC) for 60 minutes before being washed free of unbound radioligand with two rapid washes of the saline solution, using vacuum filtration. The glass filters used to collect the membranes for scintillation counting were pre-equilibrated with polyethyleneimine to reduce ligand binding by the filters.
Atropine sulfate at 12 μM was used to block muscarinic binding sites. Non-specific binding was assessed in the presence of 100 μM carbamylcholine. Thus, the Kd values of the test compounds were determined by their ability to compete for [^3H-acetyl]choline or ^3H—MCC binding. […] Some representative compounds of Formula I were tested for their ability to displace [^3H]—MCC. The Kl values presented in the table are mean values obtained from two separate experiments. […] In Table 3, “NA.” means that the data are not available.

In the next data set the target is α4β2 nicotinic receptors (Rattus norvegicus, UniProt P09483+P12390). Description: [3H]cytisine binding displacement, washed whole rat brain membranes.
α4β2 nicotinic receptors, sequence (P09483 31-630): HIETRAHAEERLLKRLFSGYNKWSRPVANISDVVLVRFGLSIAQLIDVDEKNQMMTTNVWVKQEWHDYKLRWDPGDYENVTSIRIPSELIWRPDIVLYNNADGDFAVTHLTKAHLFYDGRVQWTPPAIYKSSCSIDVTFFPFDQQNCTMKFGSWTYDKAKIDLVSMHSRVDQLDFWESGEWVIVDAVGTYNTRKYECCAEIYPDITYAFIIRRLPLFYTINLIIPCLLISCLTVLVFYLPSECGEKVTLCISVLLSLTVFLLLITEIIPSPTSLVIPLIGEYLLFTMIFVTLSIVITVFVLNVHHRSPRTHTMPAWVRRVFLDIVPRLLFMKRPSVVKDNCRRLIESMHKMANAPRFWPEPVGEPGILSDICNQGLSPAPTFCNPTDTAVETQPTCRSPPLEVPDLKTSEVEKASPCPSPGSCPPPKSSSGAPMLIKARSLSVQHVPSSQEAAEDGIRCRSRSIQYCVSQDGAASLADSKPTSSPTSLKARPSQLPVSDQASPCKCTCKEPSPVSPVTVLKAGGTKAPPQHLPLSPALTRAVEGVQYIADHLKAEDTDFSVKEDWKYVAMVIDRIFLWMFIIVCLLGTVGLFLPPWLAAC
α4β2 nicotinic receptors, sequence (P12390 25-500): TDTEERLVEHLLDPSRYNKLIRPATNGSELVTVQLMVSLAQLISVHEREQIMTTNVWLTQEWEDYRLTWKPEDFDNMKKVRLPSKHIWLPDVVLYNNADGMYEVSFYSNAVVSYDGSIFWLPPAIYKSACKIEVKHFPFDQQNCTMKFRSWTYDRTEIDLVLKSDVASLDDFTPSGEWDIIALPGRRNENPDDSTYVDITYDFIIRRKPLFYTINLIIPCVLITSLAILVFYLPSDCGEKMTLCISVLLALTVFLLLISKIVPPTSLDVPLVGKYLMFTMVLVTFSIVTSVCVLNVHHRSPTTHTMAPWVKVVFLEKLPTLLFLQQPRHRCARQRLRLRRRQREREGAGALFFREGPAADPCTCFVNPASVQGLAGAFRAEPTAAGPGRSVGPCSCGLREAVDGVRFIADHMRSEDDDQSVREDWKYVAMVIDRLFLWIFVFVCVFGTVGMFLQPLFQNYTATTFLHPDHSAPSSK
The subject of the next data set is α7 receptors. Description: Residual inhibition of ACh response after exposure to compound, oocytes. The conditions noted are these: 100 pM compound. Format: cell-based. The method, then: Peak currents were measured for responses of α4β2 receptors to agonist application, because desensitization of this receptor subtype was slow enough not to affect the concentration-response relation measured in this manner. Currents resulting from agonist application to the more rapidly desensitizing α7 receptors were integrated over a period of […] after application commenced. To compare data obtained from different oocytes, a standard response normalization procedure was used. Agonist responses of a particular oocyte were always normalized relative to its response to a standard acetylcholine (ACh) control. Before actual measurements of agonist properties, several ACh pulses separated by 5-mm intervals were applied until the responses of the oocyte to ACh became steady. After washing for 5 mm, the peak current response to the test compound was measured. After another 5-mm washing period, ACh was again applied to measure the residual responsiveness of the receptors to ACh after exposure to the test substance. The concentration-response data were fitted with a modified Hill equation, I=Imax [agonist]^nH/([agonist]^nH+EC50), to estimate apparent efficacy (normalized maximal response) and EC50.
The numbers in parentheses in Table 2 are calculated EC50, values for just the ionized forms.

For data set [2] the following is noted: Kitagawa et al. 2003; cited from earlier work.
Where [3] appears, read: inhibitory concentration of the ionized form, calculated assuming only the cationic form interacts, read-out: [3H] Cytisine Binding Ki(Ion).
[4] abbreviates: rat brain membranes, radioligand 1 nM, mean±S.E.M. of three experiments, read-out: [3H] Cytisine Binding Ki ± S.E.M.
Where [5] appears, read: displacement of [3H]-MCC, mean of two experiments, Cheng-Prusoff with Kd 5 nM, read-out: α4β2 Ki.

Where a name gives a salt, the structure may show the parent alone. Read-outs that look alike come from different tables or passages of the source.

As a reminder, the Ki is a measure of affinity in units of concentration, obtained from inhibition or displacement.

T1 sequence (P09483 31-630): as the sequence (P09483 31-630) above
T1 sequence (P12390 25-500): as the sequence (P12390 25-500) above

`Cc1ccncc1C1=NCCCC1` [GTS-28, 4′-Methylanabaseine]: the affinity in data set [1], expressed as Ki, was 3800 nM. Turning to `O=[N+]([O-])c1ccc(C=C2CCCN=C2c2cccnc2)cc1` [GTS-3, 3-(4-Nitrobenzylidene)anabaseine], the Ki in data set [1] (read-out: α4β2 Ki) is greater than 5000 nM. On to `C(=C1CCCN=C1c1cccnc1)c1ccco1` [GTS-43, 3-(2-Furylidene)anabaseine], for which the Ki in data set [1] (read-out: α4β2 Ki) was found to be 640 nM. On to `Oc1ccc(C=C2CCCN=C2c2cccnc2)cc1` [GTS-7, 3-(4-Hydroxybenzylidene)anabaseine], for which the Ki in data set [1] (read-out: α4β2 Ki) stood at 25 nM. Compound `Cc1cncc(C2=NCCCC2)c1` [GTS-60, 5′-Methylanabaseine] registered an inhibition constant (Ki) in data set [1] of 130 nM. On to `N#Cc1ccc(C=C2CCCN=C2c2cccnc2)cc1` [GTS-5, 3-(4-Cyanobenzylidene)anabaseine], for which the inhibitory constant (Ki) in data set [1] (read-out: α4β2 Ki) is greater than 5000 nM.

Turning to `Cc1ccc(C2=NCCCC2)cn1` [GTS-26, 6′-Methylanabaseine], in data set [1], the Ki is 26 nM.

In turn, `COc1cccc(C=C2CCCN=C2c2cccnc2)c1` [GTS-20, 3-(3-Methoxybenzylidene)anabaseine] showed a Ki in data set [1] of 4000 nM. In the case of `COc1cc(OC)c(C=C2CCCN=C2c2cccnc2)c(OC)c1` [GTS-35, 3-(2,4,6-Trimethoxybenzylidene)anabaseine], the Ki in data set [1] (read-out: α4β2 Ki) came to 170 nM. Consider `Clc1ccc(C=C2CCCN=C2c2cccnc2)cc1` [GTS-8, 3-(4-Chlorobenzylidene)anabaseine], for which the Ki in data set [1] (read-out: α4β2 Ki) is greater than 5000 nM. On to `CN(C)CCCOc1ccc(C=C2CCCN=C2c2cccnc2)cc1` [GTS-15, 3-(4-Dimethylaminopropoxy-benzylidene)anabaseine], for which the Ki in data set [1] (read-out: α4β2 Ki) is 1600 nM.

For `Cc1ccc(C=C2CCCN=C2c2cccnc2)cc1` [GTS-48, 3-(4-Methylbenzylidene)anabaseine], the Ki in data set [1] (read-out: α4β2 Ki) turned out to be 2000 nM. For the compound `COc1ccc(C=C2CCCN=C2c2ccccc2)c(OC)c1` [GTS-63, 2-Phenyl-3-(2,4-dimethoxybenzylidene)-4,5,6-trihydropyridine], the inhibition constant Ki in data set [1] (read-out: α4β2 Ki) was greater than 5000 nM. Consider `COc1cc(C=C2CCCN=C2c2cccnc2)ccc1O` [GTS-23, 3-(3-Methoxy-4-hydroxybenzylidene)anabaseine], for which the inhibition constant Ki in data set [1] (read-out: α4β2 Ki) is greater than 5000 nM. As to `CN(C)c1ccc(C=CC=C2CCCN=C2c2cccnc2)cc1` [DMACA, 3-(4-Dimethylaminocinnamylidene)anabaseine], the Ki in data set [1] (read-out: α4β2 Ki) worked out at 400 nM. Take `Cc1ncccc1C1=NCCCC1` [GTS-27, 2′-Methylanabaseine]: in data set [1], the affinity, expressed as Ki, was 33000 nM. Turning to `Nc1ccc(C=C2CCCN=C2c2cccnc2)cc1` [GTS-13, 3-(4-Aminobenzylidene)anabaseine], in data set [1] (read-out: α4β2 Ki), the Ki came to 170 nM. As for `COc1ccc(C=C2CCCN=C2c2cccnc2)c(O)c1` [GTS-51, 3-(2-Hydroxy-4-methoxybenzylidene)anabaseine], the results for the Ki (at α4β2 nicotinic receptors (setting [3]); at α4β2 nicotinic receptors (setting [4]); in data set [1] (read-out: α4β2 Ki)) were 128 nM, 387 ± 25 nM and 1500 nM, respectively. On to `Oc1ccc(C=C2CCCN=C2c2cccnc2)c(O)c1` [GTS-52, 3-(2,4-Dihydroxybenzylidene)anabaseine], for which the inhibition constant (Ki) at α4β2 nicotinic receptors (setting [3]) was 103 nM; on α4β2 nicotinic receptors (setting [4]) it was 206 ± 16 nM; in data set [1] (read-out: α4β2 Ki), 450 nM. For the compound `COc1ccc(C=C2CCCN=C2c2cccnc2)cc1` [GTS-2, 3-(4-Methoxybenzylidene)anabaseine], the Ki in data set [1] is 320 nM.

Take `Cc1ccc(C=C2CCCN=C2c2cccnc2)c(C)c1` [GTS-39, 3-(2,4-Dimethylbenzylidene)anabaseine]: the Ki in data set [1] (read-out: α4β2 Ki) is 1000 nM. As for `Cc1cc(C)c(C=C2CCCN=C2c2cccnc2)c(C)c1` [GTS-40, 3-(2,46,-Trimethylbenzylidene)anabaseine], the Ki in data set [1] (read-out: α4β2 Ki) came to 500 nM. On to `COc1ccc(/C=C2\CCCN=C2c2cccnc2)c(OC)c1` [GTS-21, 3-(2,4-Dimethoxybenzylidene)anabaseine], for which the Ki is 158 nM at α4β2 nicotinic receptors (setting [3]), 253 ± 37 nM at α4β2 nicotinic receptors (setting [4]) and 120 nM in data set [1] (read-out: α4β2 Ki). Also, in the data set with α7 receptors, the “residual inhibition (reduced response to ACh 5 min after washing)” value is given as roughly 50%. Further, in data set [2], the “human toxicity in phase I clinical trial” value is “did not display significant human toxicity”. Regarding `Clc1ccc(C=C2CCCN=C2c2cccnc2)c(Cl)c1` [GTS-38, 3-(2,4-Dichlorobenzylidene)anabaseine], in data set [1] (read-out: α4β2 Ki), the Ki is 2000 nM.

In the case of “6′-Methyl-3-(2,4-dimethoxybenzylidene)anabaseine [GTS-57]”, the Ki in data set [1] (setting [5]) was 500 nM.

`CCCCCOc1ccc(C=C2CCCN=C2c2cccnc2)c(O)c1` [GTS-56, 3-(2-Hydroxy-4-pentoxybenzylidene)anabaseine]: the Ki in data set [1] (read-out: α4β2 Ki) came to 250 nM. Consider `CC(C)Oc1ccc(C=C2CCCN=C2c2cccnc2)c(OC(C)C)c1` [GTS-54, 3-(2,4-Diisopropoxybenzylidene)anabaseine], for which the Ki in data set [1] (read-out: α4β2 Ki) stood at 1000 nM.

With `CCCCCOc1ccc(C=C2CCCN=C2c2cccnc2)c(OCCCCC)c1` [GTS-55, 3-(2,4-Dipentoxybenzylidene)anabaseine], in data set [1] (read-out: α4β2 Ki), the Ki was 2500 nM.

As to `COc1ccccc1C=C1CCCN=C1c1cccnc1` [GTS-16, 3-(2-Methoxybenzylidene)anabaseine], the Ki in data set [1] (read-out: α4β2 Ki) amounted to 830 nM.

Take `COc1ccc(C=C2CCC[N+](C)=C2c2cccnc2)c(OC)c1` [GTS-58, 1-Methyl-3-(2,4-djmethoxybenzylidene)anabaseine trifluoroacetate]: the Ki in data set [1] (setting [5]) was greater than 5000 nM. In the case of `C(=Cc1ccco1)C=C1CCCN=C1c1cccnc1` [GTS-44, 3-(2-Furylpropenylidene)anabaseine], the Ki in data set [1] (read-out: α4β2 Ki) is 800 nM. As for `CCCOc1ccc(C=C2CCCN=C2c2cccnc2)c(OCCC)c1` [GTS-53, 3-(2,4-Dipropoxybenzylidene)anabaseine], the Ki in data set [1] (read-out: α4β2 Ki) was 4500 nM. Regarding `C(=C1CCCN=C1c1cccnc1)c1ccoc1` [GTS-45, 3(3-Furylidene)anabaseine], in data set [1] (read-out: α4β2 Ki), the Ki came to 860 nM.
